Test results from ChEMBL document CHEMBL3045720, “Synthesis and antifungal activity of 2-chloromethyl-1H-benzimidazole derivatives against phytopathogenic fungi in vitro” (J Agric Food Chem, 2013).
In brackets after ≈: the same amount, converted by molar mass.

Columns and labels:
[1] = test system: Fusarium solani; assay: Antifungal activity against Fusarium solani assessed as inhibition of mycelium growth at 100 ug/ml […]; format: functional; details: 168 h, read-out: GI
[2] = test system: Botrytis cinerea; assay: Antifungal activity against Botryotinia fuckeliana assessed as inhibition of mycelium growth at 100 ug/ml […]; format: functional; details: 168 h, read-out: GI
[3] = test system: Colletotrichum gloeosporioides; assay: Antifungal activity against Colletotrichum gloeosporioides assessed as inhibition of mycelium growth at 100 ug/ml after 3 to 4 days; details: 72 to 96 h, read-out: GI
[4] = test system: Cytospora; assay: Antifungal activity against Cytospora sp. assessed as inhibition of mycelium growth at 100 ug/ml after 3 to 4 days; details: 72 to 96 h, read-out: GI
[5] = test system: Alternaria solani; assay: Antifungal activity against Alternaria solani assessed as inhibition of mycelium growth at 100 ug/ml […]; format: functional; details: 168 h, read-out: GI
[6] = test system: Fusarium solani; assay: Antifungal activity against Fusarium solani assessed as inhibition of mycelium growth after 1 week; format: functional, organism-based
[7] = test system: Colletotrichum gloeosporioides; assay: Antifungal activity against Colletotrichum gloeosporioides assessed as inhibition of mycelium growth […]; format: functional, organism-based; details: Colletotrichum gloeosporioides; read-out: IC50
[8] = test system: Botrytis cinerea; assay: Antifungal activity against Botryotinia fuckeliana assessed as inhibition of mycelium growth after 1 week; format: functional, organism-based; details: 168 h
[9] = test system: Alternaria solani; assay: Antifungal activity against Alternaria solani assessed as inhibition of mycelium growth after 1 week; format: functional, organism-based
[10] = test system: Cytospora; assay: Antifungal activity against Cytospora sp. assessed as […]; format: functional, organism-based
[11] = Fusarium solani, 168 h, read-out: IC50
[12] = Alternaria solani, 168 h, read-out: IC50
[13] = Cytospora, 168 h, read-out: IC50

SMILES | inhibition of growth at 100 µg/mL [1] [%] | inhibition of growth at 100 µg/mL [2] [%] | inhibition of growth at 100 µg/mL [3] [%] | inhibition of growth at 100 µg/mL [4] [%] | inhibition of growth at 100 µg/mL [5] [%] | IC50 [6, 11] [µg/mL] | IC50 [7] [µg/mL] | IC50 [8] [µg/mL] | IC50 [9, 12] [µg/mL] | IC50 [10, 13] [µg/mL] | IC50 [6] | IC50 [9] | IC50 [10]
CC(=O)c1ccc(OCc2nc3cc([N+](=O)[O-])ccc3n2C)cc1 | < 5 | 38.6 | < 5 | < 5 | 33.5 |  |  |  |  |  |  |  | 
CC(=O)c1cccc(OCc2nc3ccccc3n2C)c1 | 78.5 | 82.5 | 41.3 | 55.5 | 64.5 | 82.4 (≈ 294 µM) | > 120 | 68.9 (≈ 246 µM) | > 100 | > 100 |  |  | 
Cn1c(COc2ccc3c(c2)OCO3)nc2ccccc21 | 74.5 | 88.3 | 81 | 80.6 | 64 | 73 (≈ 258 µM) | 55.7 (≈ 197 µM) | 63.7 (≈ 226 µM) | > 100 | 54.3 (≈ 192 µM) |  |  | 
CC(=O)n1c(CCl)nc2ccccc21 | 21.4 | 57.3 | 43.9 | 8.05 | 11.3 |  | > 150 | 50.9 (≈ 244 µM) |  |  | Not Active | Not Active | Not Active
C=CCc1ccc(OCc2nc3ccccc3n2C)c(OC)c1 | 60.4 | 47.4 | 38.1 | 49.7 | 40.1 |  |  |  |  |  |  |  | 
COC(=O)c1ccc(OCc2nc3cc([N+](=O)[O-])ccc3n2C)cc1 | 18 | 32.2 | 59.1 | < 5 | < 5 |  |  |  |  |  |  |  | 
CCCOC(=O)c1ccc(OCc2nc3cc([N+](=O)[O-])ccc3n2C)cc1 | 19.4 | < 5 | < 5 | 10.9 | 8.05 |  |  |  |  |  |  |  | 
Cn1c(CCl)nc2ccccc21 | 28.8 | 91.5 | 69.6 | 45.4 | 51.6 | > 150 | 80.3 (≈ 444 µM) | 68.1 (≈ 377 µM) | > 100 | > 100 |  |  | 
COc1cc(C=O)ccc1OCc1nc2ccccc2n1C | 24.7 | 15.2 | < 5 | 10.2 | 40.9 |  |  |  |  |  |  |  | 
Cn1c(COc2ccc(F)cc2)nc2ccccc21 | 83.9 | 47.4 | 62.7 | 80.6 | 85.2 | 31.5 (≈ 123 µM) | > 100 | > 120 | 69.3 (≈ 271 µM) | 58.2 (≈ 227 µM) |  |  | 
Cn1c(COc2ccc(C(C)(C)C)cc2)nc2cc([N+](=O)[O-])ccc21 | < 5 | 57.3 | 30.2 | < 5 | 30.2 |  |  |  |  |  |  |  | 
CCOC(=O)c1ccc(OCc2nc3ccccc3n2C)cc1 | 21.4 | 35.9 | 71.7 | 79.9 | 39.1 | > 150 | 49.7 (≈ 160 µM) | > 150 | > 150 | 52.6 (≈ 169 µM) |  |  | 
CC(=O)c1ccccc1OCc1nc2ccccc2n1C | 64.7 | 64.9 | 71.4 | 64.5 | 65.5 | > 100 | 70.6 (≈ 252 µM) | > 100 | > 100 | > 100 |  |  | 
Cn1c(COc2ccc(C(C)(C)C)cc2)nc2ccccc21 | < 5 | 64.8 | 63.8 | 28.2 | 23.6 |  |  |  |  |  |  |  | 
Cn1c(COc2cccc3ccccc23)nc2ccccc21 | 53 | < 5 | 22.2 | 62.6 | 50.7 |  |  |  |  |  |  |  | 
CNc1ccccc1N(C)C(=O)CCl | 30.1 | 64.4 | 41.3 | < 5 | 25.3 |  |  |  |  |  |  |  | 
O=S(=O)(c1ccc(Cl)cc1)n1c(CCl)nc2ccccc21 | 28.1 | 57.3 | 74.6 | 27.4 | 31.9 |  | 22.3 (≈ 65.3 µM) | > 100 |  |  | Not Active | Not Active | Not Active

SMILES | inhibition of growth at 100 µg/mL [1] [%] | inhibition of growth at 100 µg/mL [2] [%] | inhibition of growth at 100 µg/mL [3] [%] | inhibition of growth at 100 µg/mL [4] [%] | inhibition of growth at 100 µg/mL [5] [%] | IC50 [6, 11] [µg/mL] | IC50 [7] [µg/mL] | IC50 [8] [µg/mL] | IC50 [9, 12] [µg/mL] | IC50 [10, 13] [µg/mL] | IC50 [6] | IC50 [9] | IC50 [10]
Cn1c(COc2ccc([N+](=O)[O-])cc2)nc2ccccc21 | 8.6 | < 5 | 41.3 | 19.5 | 11.3 |  |  |  |  |  |  |  | 
Cn1c(CCl)nc2cc([N+](=O)[O-])ccc21 | 100 | 48.7 | 100 | 100 | 100 | 23.3 (≈ 103 µM) | 28 (≈ 124 µM) | > 100 | 27.9 (≈ 124 µM) | 22.5 (≈ 99.6 µM) |  |  | 
CS(=O)(=O)n1c(CCl)nc2ccccc21 | 79.2 | 79.9 | 100 | 100 | 68 | 40.1 (≈ 164 µM) | 11.4 (≈ 46.5 µM) | 57.7 (≈ 236 µM) | > 100 | 31 (≈ 127 µM) |  |  | 
Cn1c(COc2ccc(C=O)cc2)nc2cc([N+](=O)[O-])ccc21 | < 5 | < 5 | < 5 | 9.48 | 16.3 |  |  |  |  |  |  |  | 
Cn1c(COc2ccc(Cl)cc2)nc2ccccc21 | 64.1 | 83 | 90.5 | 76.3 | 77.8 | > 100 | 41.3 (≈ 151 µM) | 26.8 (≈ 98.3 µM) | 62.5 (≈ 229 µM) | 24.9 (≈ 91.3 µM) |  |  | 
CCOC(=O)c1ccc(OCc2nc3cc([N+](=O)[O-])ccc3n2C)cc1 | < 5 | < 5 | < 5 | < 5 | 11.3 |  |  |  |  |  |  |  | 
CC(=O)c1cccc(OCc2nc3cc([N+](=O)[O-])ccc3n2C)c1 | < 5 | < 5 | < 5 | 51.9 | < 5 |  |  |  |  |  |  |  | 
COC(=O)c1ccc(OCc2nc3ccccc3n2C)cc1 | 48.2 | 6.43 | < 5 | 31 | 64.6 |  |  |  |  |  |  |  | 
Cn1c(COc2cccc3ccccc23)nc2cc([N+](=O)[O-])ccc21 | < 5 | < 5 | < 5 | < 5 | 19.5 |  |  |  |  |  |  |  | 
Cn1c(COc2ccc(F)cc2)nc2cc([N+](=O)[O-])ccc21 | 9.95 | < 5 | < 5 | 22.4 | < 5 |  |  |  |  |  |  |  | 
CCCOC(=O)c1ccc(OCc2nc3ccccc3n2C)cc1 | 42.2 | < 5 | 20.6 | 48.3 | 63.6 |  |  |  |  |  |  |  | 
CC(=O)c1ccccc1OCc1nc2cc([N+](=O)[O-])ccc2n1C | < 5 | < 5 | < 5 | < 5 | 13.8 |  |  |  |  |  |  |  | 
C=CCc1ccc(OCc2nc3cc([N+](=O)[O-])ccc3n2C)c(OC)c1 | 25.4 | 24 | < 5 | < 5 | 35.1 |  |  |  |  |  |  |  | 
Cn1c(COc2ccc(C=O)cc2)nc2ccccc21 | 12 | < 5 | 49.2 | 21 | 27.8 |  |  |  |  |  |  |  | 
Cn1c(COc2ccccc2)nc2cc([N+](=O)[O-])ccc21 | 5.91 | 7.89 | < 5 | < 5 | 10.5 |  |  |  |  |  |  |  | 
COc1cc(C(C)=O)ccc1OCc1nc2ccccc2n1C | < 5 | 59.1 | 14.3 | 26 | 17.9 |  |  |  |  |  |  |  | 
